Reference: patent US20060069132A1, “Azolecarboxamide herbicides” (priority 2004, published 2006)

Legend:
barnyardgrass [1] = assay: Test A pre-/postemergence herbicide test; assay type: in vivo, Echinochloa crus-galli
Procedure, shortened: (§1)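 Plants are held in greenhouse about ten days after treatment, then compared with untreated controls and scored 0 (no effect) to 100 (complete control). Preemergence dosing is a directed soil spray on sown sandy loam; postemergence dosing is spray to runoff at 2–10 cm height.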

large crabgrass = assay: Test A pre-/postemergence herbicide test; assay type: in vivo, Digitaria sanguinalis
Procedure, shortened: as §1

giant foxtail = assay: Test A pre-/postemergence herbicide test; assay type: in vivo, Setaria faberi
Procedure, shortened: as §1

morningglory = assay: Test A pre-/postemergence herbicide test; assay type: in vivo, Ipomoea spp.
Procedure, shortened: as §1

redroot pigweed = assay: Test A pre-/postemergence herbicide test; assay type: in vivo, Amaranthus retroflexus
Procedure, shortened: as §1

velvetleaf = assay: Test A pre-/postemergence herbicide test; assay type: in vivo, Abutilon theophrasti
Procedure, shortened: as §1

rice = assay: Test B flooded paddy test; assay type: in vivo, Oryza sativa; conditions: scale 0 to 100 (0 no effect, 100 complete control)
Procedure, shortened: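 Paddy species grown to the 2-leaf stage under flooding; blackgrass sprayed postemergence at 2–18 cm (1- to 4-leaf stage). Plants kept in a greenhouse for 13 to 15 days, then visually rated against controls on 0 (no effect) to 100 (complete control).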

[2] = test system: small flower umbrella sedge; assay: Test B flooded paddy test; assay type: in vivo, Cyperus difformis; conditions: scale 0 to 100 (0 no effect, 100 complete control)
Procedure, shortened: (§2)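 Plants grow to 1- to 4-leaf stage (2–18 cm) for postemergence spraying, or to 2-leaf stage for the paddy test. Formulated compound is applied. Greenhouse holding lasts 13–15 days. Response is scored visually relative to controls, 0 no effect to 100 complete control; a dash means no result.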

ducksalad = assay: Test B flooded paddy test; assay type: in vivo, Heteranthera limosa; conditions: scale 0 to 100 (0 no effect, 100 complete control)
Procedure, shortened: as §2

barnyardgrass [3] = assay: Test B flooded paddy test; assay type: in vivo, Echinochloa crus-galli; conditions: scale 0 to 100 (0 no effect, 100 complete control)
Procedure, shortened: as §2

[4] = Postemergence, 125 g ai/ha, 0 to 100 scale, 0 no effect, 100 complete control
[5] = Postemergence, 500 g ai/ha, 0 to 100 scale, 0 no effect, 100 complete control
[6] = preemergence, 125 g ai/ha, visual injury, 0 to 100 scale (0 no effect, 100 complete control)
[7] = preemergence, 500 g ai/ha, visual injury, 0 to 100 scale (0 no effect, 100 complete control)

SMILES | Barnyardgrass plant response rating (barnyardgrass [1]; [4]) | Barnyardgrass plant response rating (barnyardgrass [1]; [5]) | Barnyardgrass plant response rating (barnyardgrass [1]; [6]) | Barnyardgrass plant response rating (barnyardgrass [1]; [7]) | Crabgrass, Large plant response rating (large crabgrass; [4]) | Crabgrass, Large plant response rating (large crabgrass; [5]) | Crabgrass, Large plant response rating (large crabgrass; [6]) | Crabgrass, Large plant response rating (large crabgrass; [7]) | Foxtail, Giant plant response rating (giant foxtail; [4]) | Foxtail, Giant plant response rating (giant foxtail; [5]) | Foxtail, Giant plant response rating (giant foxtail; [6]) | Foxtail, Giant plant response rating (giant foxtail; [7]) | Morningglory plant response rating (morningglory; [4]) | Morningglory plant response rating (morningglory; [5]) | Morningglory plant response rating (morningglory; [6]) | Morningglory plant response rating (morningglory; [7]) | Pigweed plant response rating (redroot pigweed; [4]) | Pigweed plant response rating (redroot pigweed; [5]) | Pigweed plant response rating (redroot pigweed; [6]) | Pigweed plant response rating (redroot pigweed; [7]) | further results
CCc1nn(C(C)(C)C)cc1C(=O)Nc1cc(C(=S)N(C)C)ccc1F [Compound 454] | 40 | 80 | 70 | 85 | 10 | 70 | 50 | 85 | 20 | 70 | 10 | 85 | 10 | 50 | 0 | 20 | 40 | 70 | 20 | 90 | Velvetleaf plant response rating (velvetleaf; [4]): 50; Velvetleaf plant response rating (velvetleaf; [5]): 70; Velvetleaf plant response rating (velvetleaf; [6]): 0; Velvetleaf plant response rating (velvetleaf; [7]): 20; Rice plant response rating (rice; 125 g ai/ha): 60; Rice plant response rating (rice; 500 g ai/ha): 80; Sedge, Umbrella plant response rating ([2]; 125 g ai/ha): 60; Sedge, Umbrella plant response rating ([2]; 500 g ai/ha): 70; Ducksalad plant response rating (ducksalad; 125 g ai/ha): 50; Ducksalad plant response rating (ducksalad; 500 g ai/ha): 70; Barnyardgrass plant response rating (barnyardgrass [3]; 125 g ai/ha): 50; Barnyardgrass plant response rating (barnyardgrass [3]; 500 g ai/ha): 90
CCn1nc(C(C)(C)C)nc1C(=O)Nc1cccc(OC(F)(F)F)c1 [Compound 449] | 20 | 35 | 45 | 90 | 20 | 30 | 35 | 80 | 20 | 50 | 60 | 90 | 5 | 15 | 0 | 5 | 20 | 40 | 0 | 50 | Velvetleaf plant response rating (velvetleaf; [4]): 10; Velvetleaf plant response rating (velvetleaf; [5]): 20; Velvetleaf plant response rating (velvetleaf; [6]): 0; Velvetleaf plant response rating (velvetleaf; [7]): 10; Rice plant response rating (rice; 125 g ai/ha): 10; Rice plant response rating (rice; 500 g ai/ha): 50; Sedge, Umbrella plant response rating ([2]; 125 g ai/ha): 30; Sedge, Umbrella plant response rating ([2]; 500 g ai/ha): 80; Ducksalad plant response rating (ducksalad; 125 g ai/ha): 20; Ducksalad plant response rating (ducksalad; 500 g ai/ha): 70; Barnyardgrass plant response rating (barnyardgrass [3]; 125 g ai/ha): 0; Barnyardgrass plant response rating (barnyardgrass [3]; 500 g ai/ha): 30
